According to US11312723B2, “Pyranopyrazole and pyrazolopyridine immunomodulators for treatment of autoimmune diseases” (The Rockefeller University, priority 2017, dated 2022):

Key:
Human FXIIa = Human FXIIa (Homo sapiens (Human), UniProt P00748); experiment: Factor XIIa (FXIIa) inhibitory activity, chromogenic substrate (Pefachrome XIIa) cleavage; format: biochemical; conditions: 10 min pre-incubation, Pefachrome XIIa 400 μM
Human alpha-thrombin = Human alpha-thrombin (Homo sapiens (Human), UniProt P00734); experiment: Thrombin counterscreen for selectivity, fluorogenic substrate cleavage; format: biochemical; conditions: 10 min pre-incubation, Boc-Val-Pro-Arg-AMC 20 μM
Description: Counterscreens for Selectivity:
Thrombin. In a 96-well white opaque plate, 80 μl of assay buffer was added to each well. Test compounds were added, and serially diluted as above, to generate a concentration range of approximately 1-100 μM. Human alpha-thrombin (Enzyme Research Labs) was diluted in assay buffer to a final concentration of 12.5 nM. 80 μl of this enzyme solution was added to the assay wells. The enzyme/compound mixtures were incubated for 10 minutes at room temperature. Fluorogenic substrate (Boc-Val-Pro-Arg-7-amido-4-methylcoumarin; Sigma) was added to assay wells at a final concentration of 20 μM. The assay plate was spun for 1 minute at 1500 g and then read at 37° C. in a SpectraMax M2 plate reader (λex=380 nm and λem=460 nm). Activity was quantified as the rate of change in fluorescence, which corresponds to the rate of substrate cleavage. IC50 values were determined as the concentration of inhibitor that produced 50% of the rate of change of control wells without any inhibitor. For compounds with activity <1 μM, the assay was repeated with a lower concentration range, typically from 10-1000 nM.

Sequence of Human FXIIa (P00748 373-615): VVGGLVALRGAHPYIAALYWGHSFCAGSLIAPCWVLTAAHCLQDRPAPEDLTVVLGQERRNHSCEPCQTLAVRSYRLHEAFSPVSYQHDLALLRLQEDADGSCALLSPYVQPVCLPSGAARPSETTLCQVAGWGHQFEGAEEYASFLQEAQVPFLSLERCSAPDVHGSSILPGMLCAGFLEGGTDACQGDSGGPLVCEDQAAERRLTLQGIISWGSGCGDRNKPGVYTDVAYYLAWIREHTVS
Sequence of Human FXIIa (P00748 20-372 partner): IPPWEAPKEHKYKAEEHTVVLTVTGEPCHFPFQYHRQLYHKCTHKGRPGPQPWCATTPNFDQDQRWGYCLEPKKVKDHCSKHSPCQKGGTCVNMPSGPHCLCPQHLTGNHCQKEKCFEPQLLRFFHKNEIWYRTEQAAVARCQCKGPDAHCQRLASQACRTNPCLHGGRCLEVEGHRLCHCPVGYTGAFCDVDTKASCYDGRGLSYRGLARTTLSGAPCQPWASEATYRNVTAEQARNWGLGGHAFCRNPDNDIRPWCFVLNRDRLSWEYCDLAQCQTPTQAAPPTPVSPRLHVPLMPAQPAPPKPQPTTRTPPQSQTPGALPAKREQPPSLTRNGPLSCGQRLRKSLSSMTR

Q: With `Cc1ccc2c(c1)C(C(=O)n1nc3c(c1N)CCN(S(C)(=O)=O)C3)CCN2` (centres unmarked) [Example 12, (3-amino-6-(methylsulfonyl)-4,5,6,7-tetrahydropyrazolo[3,4-c]pyridin-2-yl)(6-methyl-1,2,3,4-tetrahydroquinolin-4-yl)methanone] as the compound, how does the IC50 (Human FXIIa) read?
A: 300 nM

Q: What about the IC50 (Human alpha-thrombin) of the same compound?
A: > 55000 nM

Q: With `CS(=O)(=O)N1CCc2c(nn(C(=O)C3CCNc4ccc(Cl)cc43)c2N)C1` (centres unmarked) [Example 14, (3-amino-6-(methylsulfonyl)-4,5,6,7-tetrahydropyrazolo[3,4-c]pyridin-2-yl)(6-chloro-1,2,3,4-tetrahydroquinolin-4-yl)methanone] as the compound, how does the IC50 (Human FXIIa) read?
A: 40 nM

Q: And the IC50 (Human alpha-thrombin)?
A: 20000 nM

Q: For `CS(=O)(=O)N1CCc2c(N)nn(C(=O)C3CCNc4ccc(Cl)cc43)c2C1` (centres unmarked) [Example 15, (3-amino-6-(methylsulfonyl)-4,5,6,7-tetrahydropyrazolo[3,4-c]pyridin-1-yl)(6-chloro-1,2,3,4-tetrahydroquinolin-4-yl)methanone], which IC50 (Human FXIIa) is on record?
A: > 65000 nM

Q: What about the IC50 (Human alpha-thrombin) of the same compound?
A: > 70000 nM

Q: Which IC50 (Human FXIIa) does the source give for `CCN1CCc2c(nn(C(=O)C3CCNc4ccccc43)c2N)C1` (centres unmarked) [Example 20, (3-amino-6-ethyl-4,5,6,7-tetrahydropyrazolo[3,4-c]pyridin-2-yl)(1,2,3,4-tetrahydroquinolin-4-yl)methanone] here?
A: 150 nM

Q: What about the IC50 (Human alpha-thrombin) of the same compound?
A: > 40000 nM

Q: Which IC50 (Human FXIIa) does the source give for `CCN1CCc2c(N)nn(C(=O)C3CCNc4ccccc43)c2C1` (centres unmarked) [Example 21, (3-amino-6-ethyl-4,5,6,7-tetrahydropyrazolo[3,4-c]pyridin-1-yl)(1,2,3,4-tetrahydroquinolin-4-yl)methanone] here?
A: 1500 nM

Q: And the IC50 (Human alpha-thrombin)?
A: > 50000 nM

Q: `CS(=O)(=O)N1CCc2c(nn(C(=O)C3CCNc4ccc(C(F)(F)F)cc43)c2N)C1` (centres unmarked) [Example 24, (3-amino-6-(methylsulfonyl)-4,5,6,7-tetrahydropyrazolo[3,4-c]pyridin-2-yl)(6-(trifluoromethyl)-1,2,3,4-tetrahydroquinolin-4-yl)methanone] was tested. Which IC50 (Human FXIIa) did it give?
A: 100 nM

Q: What about the IC50 (Human alpha-thrombin) of the same compound?
A: 25000 nM

Q: `CS(=O)(=O)N1CCc2c(N)nn(C(=O)C3CCNc4ccc(C(F)(F)F)cc43)c2C1` (centres unmarked) [Example 25, (3-amino-6-(methylsulfonyl)-4,5,6,7-tetrahydropyrazolo[3,4-c]pyridin-1-yl)(6-(trifluoromethyl)-1,2,3,4-tetrahydroquinolin-4-yl)methanone] was tested. Which IC50 (Human FXIIa) did it give?
A: 40000 nM

Q: What about the IC50 (Human alpha-thrombin) of the same compound?
A: > 70000 nM

Q: `Cn1cc2c(c1)C(C(=O)n1nc3c(c1N)CCN(S(C)(=O)=O)C3)CCC2` (centres unmarked) [Example 26, (3-amino-6-(methylsulfonyl)-4,5,6,7-tetrahydropyrazolo[3,4-c]pyridin-2-yl)(2-methyl-4,5,6,7-tetrahydro-2H-isoindol-4-yl)methanone] was tested. Which IC50 (Human FXIIa) did it give?
A: 150 nM

Q: What about the IC50 (Human alpha-thrombin) of the same compound?
A: 4500 nM

Q: `Nc1c2c(nn1C(=O)C1CCNc3ccc(F)cc31)CN(c1ccccc1)CC2` (centres unmarked) [Example 28, (3-amino-6-phenyl-4,5,6,7-tetrahydropyrazolo[3,4-c]pyridin-2-yl)(6-fluoro-1,2,3,4-tetrahydroquinolin-4-yl)methanone] was tested. Which IC50 (Human FXIIa) did it give?
A: 160 nM

Q: And the IC50 (Human alpha-thrombin)?
A: > 35000 nM

Q: Which results are given for `CCc1ccc2c(c1)C(C(=O)n1nc3c(c1N)CCN(S(C)(=O)=O)C3)CCN2` (centres unmarked) [Example 30, (3-amino-6-(methylsulfonyl)-4,5,6,7-tetrahydropyrazolo[3,4-c]pyridin-2-yl)(6-ethyl-1,2,3,4-tetrahydroquinolin-4-yl)methanone]?
A: IC50 (Human FXIIa): 50 nM; IC50 (Human alpha-thrombin): 22000 nM

Q: What does the source list for `Cc1cccc2c1NCCC2C(=O)n1nc2c(c1N)CCN(S(C)(=O)=O)C2` (centres unmarked) [Example 34, (3-amino-6-(methylsulfonyl)-4,5,6,7-tetrahydropyrazolo[3,4-c]pyridine-2-yl)(8-methyl-1,2,3,4-tetrahydroquinolin-4-yl)methanone]?
A: IC50 (Human FXIIa): 40 nM; IC50 (Human alpha-thrombin): 23000 nM

Q: Which results are given for `CS(=O)(=O)N1CCc2c(nn(C(=O)C3CCNc4c(F)cccc43)c2N)C1` (centres unmarked) [Example 37, (3-amino-6-(methylsulfonyl)-4,5,6,7-tetrahydropyrazolo[3,4-c]pyridin-2-yl)(8-fluoro-1,2,3,4-tetrahydroquinolin-4-yl)methanone]?
A: IC50 (Human FXIIa): 100 nM; IC50 (Human alpha-thrombin): 25000 nM

Q: Which IC50 (Human FXIIa) does the source give for `CC1(C)CC(C(=O)n2nc3c(c2N)CCN(S(C)(=O)=O)C3)c2ccccc2N1` (centres unmarked) [Example 39, (3-amino-6-(methylsulfonyl)-4,5,6,7-tetrahydropyrazolo[3,4-c]pyridin-2-yl)(2,2-dimethyl-1,2,3,4-tetrahydroquinolin-4-yl)methanone] here?
A: 150 nM

Q: And the IC50 (Human alpha-thrombin)?
A: 45000 nM

Q: With `CS(=O)(=O)N1CCc2c(nn(C(=O)C3CCNc4ncccc43)c2N)C1` (centres unmarked) [Example 41, (3-amino-6-(methylsulfonyl)-4,5,6,7-tetrahydropyrazolo[3,4-c]pyridin-2-yl)(1,2,3,4-tetrahydro-1,8-naphthyridin-4-yl)methanone] as the compound, how does the IC50 (Human FXIIa) read?
A: 1700 nM

Q: What about the IC50 (Human alpha-thrombin) of the same compound?
A: 4400 nM

Q: Which IC50 (Human FXIIa) does the source give for `CC(C)c1ccc2c(c1)C(C(=O)n1nc3c(c1N)CCN(S(C)(=O)=O)C3)CCN2` (centres unmarked) [Example 45, (3-amino-6-(methylsulfonyl)-4,5,6,7-tetrahydropyrazolo[3,4-c]pyridin-2-yl)(6-isopropyl-1,2,3,4-tetrahydroquinolin-4-yl)methanone] here?
A: 2200 nM

Q: What about the IC50 (Human alpha-thrombin) of the same compound?
A: 45000 nM

Q: Which results are given for `CS(=O)(=O)N1CCc2c(nn(C(=O)C3CCNc4ccc(-c5ccccc5)cc43)c2N)C1` (centres unmarked) [Example 49, (3-amino-6-(methylsulfonyl)-4,5,6,7-tetrahydropyrazolo[3,4-c]pyridin-2-yl)(6-phenyl-1,2,3,4-tetrahydroquinolin-4-yl)methanone]?
A: IC50 (Human FXIIa): 11000 nM; IC50 (Human alpha-thrombin): 17000 nM

Q: What does the source list for `Cc1cc(F)cc2c1NCCC2C(=O)n1nc2c(c1N)CCN(S(C)(=O)=O)C2` (centres unmarked) [Example 51, (3-amino-6-(methylsulfonyl)-4,5,6,7-tetrahydropyrazolo[3,4-c]pyridin-2-yl)(6-fluoro-8-methyl-1,2,3,4-tetrahydroquinolin-4-yl)methanone]?
A: IC50 (Human FXIIa): 20 nM; IC50 (Human alpha-thrombin): 15000 nM

Q: With `CCc1cc(C)c2c(c1)C(C(=O)n1nc3c(c1N)CCN(S(C)(=O)=O)C3)CCN2` (centres unmarked) [Example 55, (3-amino-6-(methylsulfonyl)-4,5,6,7-tetrahydropyrazolo[3,4-c]pyridin-2-yl)(6-ethyl-8-methyl-1,2,3,4-tetrahydroquinolin-4-yl)methanone] as the compound, how does the IC50 (Human FXIIa) read?
A: 40 nM

Q: What about the IC50 (Human alpha-thrombin) of the same compound?
A: > 70000 nM

Q: Which IC50 (Human FXIIa) does the source give for `CS(=O)(=O)N1CCc2c(nn(C(=O)C3CCNc4c(Cl)cccc43)c2N)C1` (centres unmarked) [Example 57, (3-amino-6-(methylsulfonyl)-4,5,6,7-tetrahydropyrazolo[3,4-c]pyridin-2-yl)(8-chloro-1,2,3,4-tetrahydroquinolin-4-yl)methanone] here?
A: 50 nM

Q: What about the IC50 (Human alpha-thrombin) of the same compound?
A: 16000 nM

Q: `COc1cccc2c1NCCC2C(=O)n1nc2c(c1N)CCN(S(C)(=O)=O)C2` (centres unmarked) [Example 61, (3-amino-6-(methylsulfonyl)-4,5,6,7-tetrahydropyrazolo[3,4-c]pyridin-2-yl)(8-methoxy-1,2,3,4-tetrahydroquinolin-4-yl)methanone] was tested. Which IC50 (Human FXIIa) did it give?
A: 100 nM

Q: What about the IC50 (Human alpha-thrombin) of the same compound?
A: 20000 nM

Q: How did the IC50 (Human FXIIa) turn out when `CS(=O)(=O)N1CCc2c(nn(C(=O)C3CCNc4c3cccc4C(F)(F)F)c2N)C1` (centres unmarked) [Example 67, (3-amino-6-(methylsulfonyl)-4,5,6,7-tetrahydropyrazolo[3,4-c]pyridin-2-yl)(8-(trifluoromethyl)-1,2,3,4-tetrahydroquinolin-4-yl)methanone] was run?
A: 150 nM

Q: And the IC50 (Human alpha-thrombin)?
A: > 70000 nM

Q: Which results are given for `Nc1c2c(nn1C(=O)C1CCNc3ccc(F)cc31)CCOC2` (centres unmarked) [Example 74, (3-amino-6,7-dihydropyrano[4,3-c]pyrazol-2(4H)-yl)(6-fluoro-1,2,3,4-tetrahydroquinolin-4-yl)methanone]?
A: IC50 (Human FXIIa): 80 nM; IC50 (Human alpha-thrombin): 50000 nM

Q: Which results are given for `Cc1cc2c(C(=O)n3nc4c(c3N)CN(C)CC4)cccc2[nH]1` [Example 85, (3-amino-5-methyl-4,5,6,7-tetrahydro-pyrazolo[4,3-c]pyridin-2-yl)(2-methyl-1H-indol-4-yl)methanone]?
A: IC50 (Human FXIIa): 30 nM; IC50 (Human alpha-thrombin): 60000 nM

Q: Which IC50 (Human FXIIa) does the source give for `COC(=O)N1CCc2nn(C(=O)C3CCNc4ccccc43)c(N)c2C1` (centres unmarked) [Example 87, methyl 3-amino-2-(1,2,3,4-tetrahydro-quinoline-4-carbonyl)-6,7-dihydro-2H-pyrazolo[4,3-c]pyridine-5(4H)-carboxylate] here?
A: 800 nM

Q: What about the IC50 (Human alpha-thrombin) of the same compound?
A: > 100000 nM

Q: `CNC(=O)N1CCc2nn(C(=O)C3CCNc4ccccc43)c(N)c2C1` (centres unmarked) [Example 89, 3-amino-N-methyl-2-(1,2,3,4-tetrahydro-quinoline-4-carbonyl)-6,7-dihydro-2H-pyrazolo[4,3-c]pyridine-5(4H)-carboxamide] was tested. Which IC50 (Human FXIIa) did it give?
A: 800 nM

Q: What about the IC50 (Human alpha-thrombin) of the same compound?
A: > 80000 nM

Q: For `CNC(=O)N1CCc2c(c(N)nn2C(=O)C2CCNc3ccccc32)C1` (centres unmarked) [Example 90, 3-amino-N-methyl-1-(1,2,3,4-tetrahydro-quinoline-4-carbonyl)-6,7-dihydro-1H-pyrazolo[4,3-c]pyridine-5(4H)-carboxamide], which IC50 (Human FXIIa) is on record?
A: 1500 nM

Q: And the IC50 (Human alpha-thrombin)?
A: 12000 nM

Q: For `CS(=O)(=O)N1CCc2nn(C(=O)C3CCNc4ccccc43)c(N)c2C1` (centres unmarked) [Example 91, (3-amino-5-(methylsulfonyl)-4,5,6,7-tetrahydro-pyrazolo[4,3-c]pyridin-2-yl)(1,2,3,4-tetrahydro-quinolin-4-yl)methanone], which IC50 (Human FXIIa) is on record?
A: 1500 nM

Q: What about the IC50 (Human alpha-thrombin) of the same compound?
A: > 70000 nM

Q: With `CCN1CCc2nn(C(=O)C3CCNc4ccccc43)c(N)c2C1` (centres unmarked) [Example 93, (3-amino-5-ethyl-4,5,6,7-tetrahydro-pyrazolo[4,3-c]pyridin-2-yl)(1,2,3,4-tetrahydro-quinolin-4-yl)methanone] as the compound, how does the IC50 (Human FXIIa) read?
A: 1300 nM

Q: What about the IC50 (Human alpha-thrombin) of the same compound?
A: > 100000 nM
